Common to all, as to assay: NCI-60 cell line screen, 48 h
For assay [1], the system named is OVCAR-8.
The subject of assay [2] is UO-31.
The test system of assay [3] is SF-539.
For assay [4], the system named is CCRF-CEM.
Assay [5] concerns UACC-62.
The subject of assay [6] is LOX IMVI.
For assay [7], the system named is SW-620.
Assay [8] deals with NCI-H226.
Assay [9] concerns HOP-62.
Assay [10] concerns HOP-92.
Assay [11] has as its system SK-MEL-2.
The subject of assay [12] is SK-MEL-5.
Assay [13] relates to 786-0.
Assay [14] relates to SN12C.
For assay [15], the system named is NCI-H23.
Assay [16] relates to RXF 393.
In assay [17] the test system is RPMI-8226.

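In this assay, cells in 96-well plates receive the compound at five concentrations for 48 hours. Endpoints are linearly interpolated between the surrounding concentrations. GI50 = concentration required for 50% inhibition of growth.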 The source made the active and inactive calls. Cut-off read from the data, not from the text of the source: active = GI50 up to about 1.1 µM and inactive = higher. Some results are limits rather than exact numbers.

From ChEMBL document CHEMBL1201862, “PubChem BioAssay data set” (2004) come the findings set out here.

With `N#Cc1ccc(Cc2ccccn2)cc1Cl`, the GI50 in assay [1], in assay [2], in [3], in assay [4], in assay [5] and in [6] was > 100 µM (inactive) throughout. Moreover, the GI50 in [7], in assay [8], in [9], in assay [10], in [11] and in assay [12] was > 100 µM (inactive) in each case. Also, the GI50 in assay [13], in assay [14], in assay [15] and in [16] was > 100 µM (inactive) throughout.
As for `Cc1cc([N+](=O)[O-])c(C)c2c1[nH]c1ccc(O)cc12`, the GI50 in [1] was > 100 µM (inactive); in assay [2], > 100 µM (inactive); in assay [3], > 100 µM (inactive); in [4] it was 23.4 µM (inactive); in assay [6], 61.5 µM (inactive); in [7], 63.1 µM (inactive). Further, the GI50 in assay [8] was > 100 µM (inactive); in [9], > 100 µM (inactive); in assay [11], > 100 µM (inactive); in [17], 11.1 µM (inactive); in assay [12], > 100 µM (inactive); in assay [13], 39.4 µM (inactive). The GI50 in assay [14] and in assay [15] was > 100 µM (inactive) in each case.
Turning to `CCOC(=O)NC/C=C/COC1CCCCO1` (configuration not stated), the GI50 in [1], in [2], in [3], in assay [4], in assay [5] and in [7] was > 100 µM (inactive) each time. For the same compound, the GI50 in assay [8], in assay [9], in assay [11], in assay [17], in assay [12] and in assay [13] was > 100 µM (inactive) in each case. Moreover, the GI50 in [14] and in [16] was > 100 µM (inactive) each time.
Turning to `CCN1C2=NC(=O)N(C)C(=O)C2(Cl)C(C(SC)S(=O)(=O)c2ccc(C)cc2)c2ccccc21` (configuration not stated), the GI50 in [1] was 21.2 µM (inactive); in assay [2], 19.9 µM (inactive); in assay [3] it was 37.5 µM (inactive); in [4], 5.62 µM (inactive); in assay [5] it was 44.7 µM (inactive); in [6] it was 31.3 µM (inactive). Moreover, the GI50 in assay [7] was 31.6 µM (inactive); in assay [8], 32.4 µM (inactive); in [9] it was > 100 µM (inactive); in assay [10], 30.6 µM (inactive); in assay [11] it was 55.3 µM (inactive); in assay [17], 12.7 µM (inactive). Further, the GI50 is 35.6 µM (inactive) in [12], 25.1 µM (inactive) in assay [13], 61 µM (inactive) in assay [14] and 20 µM (inactive) in [15].
Consider `COc1ccc(C(=C(C#N)C#N)c2ccc(OC)cc2)cc1`, for which the GI50 in assay [1] is > 100 µM (inactive); in [2] it was > 100 µM (inactive); in assay [3] it was > 100 µM (inactive); in assay [4], 33 µM (inactive); in assay [5], > 100 µM (inactive); in [6], > 100 µM (inactive). Besides, the GI50 in assay [7], in assay [8], in [9], in [11], in assay [17] and in assay [13] was > 100 µM (inactive) in each case. In addition, the GI50 in [14], in [15] and in [16] was > 100 µM (inactive) in each case.
Turning to `C[N+](C)(C)CC(=O)NC(=O)N/N=C\C(CC#N)CN(Cc1ccccc1)Cc1ccccc1` (configuration not stated), the GI50 in [1], in assay [2], in [3], in [4], in [5] and in assay [6] was > 100 µM (inactive) throughout. In addition, the GI50 in assay [7] was > 100 µM (inactive); in assay [8], 37.5 µM (inactive); in assay [9], > 100 µM (inactive); in assay [11], > 100 µM (inactive); in assay [12], > 100 µM (inactive); in assay [13] it was > 100 µM (inactive). The GI50 in assay [14], in assay [15] and in assay [16] was > 100 µM (inactive) throughout.
Consider `O=C(N/C(=C\c1ccc(Cl)cc1)c1nc2ccccc2[nH]1)c1ccccc1`, for which the GI50 in assay [1] was 24.5 µM (inactive); in [2], 18.8 µM (inactive); in assay [3], 16.7 µM (inactive); in [4], 20 µM (inactive); in [5], 16 µM (inactive); in assay [6], 16.2 µM (inactive). In addition, the GI50 in assay [7] is 27.4 µM (inactive); in [8], 22.2 µM (inactive); in assay [10], 14.9 µM (inactive); in assay [11], 19.1 µM (inactive); in [17] it was 16.7 µM (inactive); in assay [12], 20.1 µM (inactive). The GI50 in assay [13] was 18.9 µM (inactive); in assay [14] it was 21.9 µM (inactive); in assay [15], 18.3 µM (inactive); in assay [16], 18.4 µM (inactive).
For the compound `N#Cc1c(-c2ccccc2)c(-c2ccccc2)cc2c(=O)c3ccc(Cl)cc3[nH]c12`, the GI50 in assay [1], in assay [2], in assay [3], in assay [4], in assay [5] and in [7] was > 100 µM (inactive) each time. Moreover, the GI50 in assay [8], in [9], in assay [10], in [11], in assay [17] and in assay [13] was > 100 µM (inactive) each time. In addition, the GI50 in [14], in assay [15] and in assay [16] was > 100 µM (inactive) each time.
Turning to `Cc1cc(O)nc(CNC(=O)c2ccc3ccccc3c2)n1`, the GI50 in assay [1], in assay [2], in [3], in assay [4], in assay [5] and in assay [6] was > 100 µM (inactive) in each case. Moreover, the GI50 in assay [7], in [8], in assay [9], in assay [10], in [11] and in assay [12] was > 100 µM (inactive) each time. For the same compound, the GI50 in assay [13], in [14], in assay [15] and in [16] was > 100 µM (inactive) throughout.
For `CCn1c(C)nc([N+](=O)[O-])c1Sc1ncc[nH]1`, the GI50 in [1] is 46.1 µM (inactive); in assay [2] it was 30.5 µM (inactive); in assay [3], 52.6 µM (inactive); in assay [4] it was 19.8 µM (inactive); in assay [5] it was 28.5 µM (inactive); in assay [6], 14.7 µM (inactive). In addition, the GI50 in assay [7] was 48.2 µM (inactive); in assay [8], > 100 µM (inactive); in assay [9], > 100 µM (inactive); in [10], 25.8 µM (inactive); in assay [11], 25.4 µM (inactive); in assay [17], 21.1 µM (inactive). In addition, the GI50 in assay [12] was 48.4 µM (inactive); in [13] it was > 100 µM (inactive); in [14] it was 37 µM (inactive); in assay [15] it was 29.9 µM (inactive).
As for `CN(C)CCNC(=O)c1cc2ccccc2c2nc3ccccc3nc12`, the GI50 in [1] is 0.771 µM (active); in assay [2] it was 1.8 µM (inactive); in assay [3], 0.845 µM (active); in [5], 2 µM (inactive); in assay [6], 0.413 µM (active); in assay [7] it was 0.484 µM (active). The GI50 in assay [8] was 0.841 µM (active); in assay [9], 2.39 µM (inactive); in [11], 1.37 µM (inactive); in assay [17], 0.522 µM (active); in assay [12], 1.79 µM (inactive); in [13] it was 2.43 µM (inactive). For the same compound, the values for the GI50 in assay [14], in assay [15] and in assay [16] were 0.736 µM (active), 1.17 µM (inactive) and 1.02 µM (active), respectively.
Turning to `CC(=O)OC1CC2CCN3C(=O)c4cc5c(cc4[C@H](C1OC(C)=O)C23)OCO5` (some centres not stated), the GI50 in assay [1], in assay [2], in [3], in assay [4], in [5] and in assay [6] was > 100 µM (inactive) throughout. For the same compound, the GI50 in [7], in [8], in assay [9], in assay [17], in [13] and in [14] was > 100 µM (inactive) throughout. The GI50 in [15] and in [16] was > 100 µM (inactive) throughout.
As for `O=C1CC[C@H](NC(=O)Cc2ccccc2)C(=O)N1` [ANTINEOPLASTON A10], the GI50 in assay [1], in [2], in assay [3], in assay [4], in assay [5] and in [6] was > 1250 µM (inactive) each time. Moreover, the GI50 in assay [7], in [8], in assay [9], in [11], in assay [17] and in assay [13] was > 1250 µM (inactive) throughout. Also, the GI50 in [14], in assay [15] and in assay [16] was > 1250 µM (inactive) throughout.
